Patent publication US9133179B2, “2-methoxy-pyridin-4-yl-derivatives” (Actelion Pharmaceuticals Ltd., priority 2011, dated 2015)

How the values were obtained:
circulating lymphocytes = test: Assessment of in vivo efficacy: circulating lymphocytes after oral administration to Wistar rats; design: species or system rat; settings: Rattus norvegicus, Lymphocyte; 6 h after oral administration of 10 mg/kg, normotensive male Wistar rats, compared to vehicle group; read-out: Lymphocyte counts
Protocol: Assessment of In Vivo Efficacy
The efficacy of the compounds of Formula (I) is assessed by measuring the circulating lymphocytes after oral administration of 3 to 30 mg/kg of a compound of Formula (I) to normotensive male Wistar rats. The animals are housed in climate-controlled conditions with a 12 h-light/dark cycle, and have free access to normal rat chow and drinking water. […] Full blood is subjected to hematology using Advia Hematology system (Bayer Diagnostics, Zurich, Switzerland).
All data are presented as mean±SEM. Statistical analyses are performed by analysis of variance (ANOVA) using Statistica (StatSoft) and the Student-Newman-Keuls procedure for multiple comparisons. The null hypothesis is rejected when p<0.05.

rat trachea rings = test: Measurement of isometric force development: constriction of rat trachea rings; settings: for % trachea constriction at 3 μM / % trachea constriction at 10 μM / % trachea constriction at 30 μM / % trachea constriction at 10 nM / % trachea constriction at 30 nM / % trachea constriction at 0.3 μM: in % of the constriction induced by 50 mM KCl; for activation at 1 µM / activation at 0.1 µM: Rattus norvegicus; for activation at 1 µM: read-out: % trachea constriction at 1 μM; for activation at 0.1 µM: read-out: % trachea constriction at 0.1 μM
Protocol: Measurement of Isometric Force Development
Female Wistar rats are euthanized by exposure to CO2. The tracheae are excised and rings from the lower segments are prepared. […] A resting force of 2 g (20 mN) is applied to the ring preparation, and changes in force generation are measured using an isometric force recorder (EMKA Technologies Inc., Paris, France). Viability of rings is assessed by exposure to a depolarizing concentration of KCl (50 mM). Contraction of trachea is expressed as a percentage of the response to KCl.
The compounds are prepared as stock solutions of 0.3 mM in pure DMSO.

[1] = biological target: T1, human S1P1 (EDG1) receptor (Homo sapiens, UniProt P21453); test: S1P1 β-arrestin recruitment (Tango) assay to determine EC50 values; type: cell-based; settings: Tango-EDG1 bla U2OS cells, 16 h incubation
T1 construct: host or cells: U2OS (Tango EDG1-bla U2OS)
Excerpt: S1P1 β-Arrestin Recruitment (Tango) Assay to Determine EC50 Values
Upon ligand activation, G protein-coupled receptors (GPCR) trigger two pathways that independently transduce signals to the cell: one through heterotrimeric GTP-binding proteins (G proteins) and one through β-arrestins. Agonist-induced GPCRs recruit β-arrestin proteins, which then bind to the carboxy-terminal domain of ligand-activated GPCRs. The amount of β-arrestin recruitment can be used to assess the potency and efficacy of GPCR activating ligands.
To measure the potency and efficacy of compounds as S1P1 (EDG1) receptor agonists, Tango™-EDG1 bla U2OS cells (Invitrogen, USA, Catalog #K1520) are used. The Tango™ GPCR technology is based on GeneBLAzer β-lactamase reporter cell assays, which uses a mammalian-optimized β-lactamase reporter gene (bla) combined with a FRET-enabled substrate. The host cells, U2OS, stably express a human S1P1 (EDG1) receptor/transcription factor (TF) fusion protein. The cells also express a recombinant protease tagged β-arrestin protein, which is recruited to the S1P1 receptor upon ligand stimulation and specifically cleaves the S1P1-TF fusion protein. The released TF activates the β-lactamase (bla) reporter gene. To measure the reporter gene activity, cells are loaded with a fluorescent substrate containing two chemically coupled fluorophores, coumarin and fluorescein. […] In the presence of bla, the chemical bond is cleaved and FRET is inhibited. […] The amount of β-arrestin recruitment is proportional to the increase in blue fluorescence.
Tango™-EDG1 bla U2OS cells are cultivated in McCoy's 5A containing 10% dialyzed FBS, 0.1 mM NEAA, 25 mM HEPES, 1 mM sodium pyruvate, 1% Penicillin/Streptomycin, 200 μg/ml zeocin, 50 μg/ml hygromycin and 100 μg/ml geneticin (Invitrogen, USA). Cells are detached with trypsin, resuspended in medium and then counted.
Compounds (10 mM stock in DMSO) are diluted first in DMSO. The pre-diluted compounds solutions are then transferred into Assay Medium/0.1% fatty acid free BSA to reach a fourfold concentrated compound stock, which is applied to the cells to reach the final compound concentrations that range from 10 μM to 0.0005 nM (0.5% final DMSO). Cells are then incubated for 16 h at 37° C. and 5% CO2.

T1 sequence (P21453 whole entry): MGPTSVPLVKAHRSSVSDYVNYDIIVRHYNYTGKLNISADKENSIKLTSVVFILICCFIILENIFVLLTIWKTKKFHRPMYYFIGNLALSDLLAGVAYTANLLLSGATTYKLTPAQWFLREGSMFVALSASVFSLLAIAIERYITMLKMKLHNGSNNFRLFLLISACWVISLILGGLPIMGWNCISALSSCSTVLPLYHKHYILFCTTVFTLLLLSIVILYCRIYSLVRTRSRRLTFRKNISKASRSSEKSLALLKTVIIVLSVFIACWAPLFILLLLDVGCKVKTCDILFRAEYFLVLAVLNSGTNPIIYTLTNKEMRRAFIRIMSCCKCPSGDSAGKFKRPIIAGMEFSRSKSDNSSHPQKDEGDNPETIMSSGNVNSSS

EC50 [1] | concentration at which significant (or KCl-comparable) rat trachea constriction is shown (rat trachea rings; rat trachea rings) | concentration at which significant (or full) rat trachea constriction is shown (rat trachea rings; rat trachea rings) | Structure (SMILES) | change in vivo at 10 mg/kg (circulating lymphocytes) | % trachea constriction at 3 μM (rat trachea rings) | % trachea constriction at 10 μM (rat trachea rings) | % trachea constriction at 30 μM (rat trachea rings) | activation at 1 µM (rat trachea rings) | % trachea constriction at 10 nM (rat trachea rings) | % trachea constriction at 30 nM (rat trachea rings) | activation at 0.1 µM (rat trachea rings) | % trachea constriction at 0.3 μM (rat trachea rings)
0.072 nM |  |  | CCc1cc(-c2noc(-c3cc(OC)nc(C4CCCC4)c3)n2)cc(C)c1OCCCNC(=O)CCC(=O)O [Example 32, 4-((3-(4-(5-(2-Cyclopentyl-6-methoxypyridin-4-yl)-1,2,4-oxadiazol-3-yl)-2-ethyl-6-methylphenoxy)propyl)amino)-4-oxobutanoic acid] | -65% |  |  |  | 105% |  |  | 27% | 50%
0.4 nM |  |  | CCc1cc(-c2noc(-c3cc(OC)nc(C4CCCC4)c3)n2)cc(C)c1OCCN1CC(C(=O)O)C1 [Example 2, 1-(2-(4-(5-(2-Cyclopentyl-6-methoxypyridin-4-yl)-1,2,4-oxadiazol-3-yl)-2-ethyl-6-methylphenoxy)ethyl)azetidine-3-carboxylic acid] | -70% |  |  |  | 93% | <5% | <5% | < 5% | 55%
1.5 nM |  |  | CCc1cc(-c2noc(-c3cc(OC)nc(C4CCCC4)c3)n2)cc(C)c1OCCCN(C)CC(=O)O [Example 20, 2-((3-(4-(5-(2-Cyclopentyl-6-methoxypyridin-4-yl)-1,2,4-oxadiazol-3-yl)-2-ethyl-6-methylphenoxy)propyl)(methyl)amino)acetic acid] | -57% |  |  |  |  |  |  |  | 
0.659 nM |  |  | CCc1cc(-c2noc(-c3cc(OC)nc(C4CCCC4)c3)n2)cc(C)c1OCCCN(C)CCC(=O)O [Example 21, 3-((3-(4-(5-(2-Cyclopentyl-6-methoxypyridin-4-yl)-1,2,4-oxadiazol-3-yl)-2-ethyl-6-methylphenoxy)propyl)(methyl)amino)propanoic acid] | -74% |  |  |  |  |  |  |  | 
1.5 nM |  | 1000 nM | CCc1cc(-c2noc(-c3cc(OC)nc(C4CCCC4)c3)n2)cc(C)c1OCCNCC(=O)O [Example 7, 2-((2-(4-(5-(2-Cyclopentyl-6-methoxypyridin-4-yl)-1,2,4-oxadiazol-3-yl)-2-ethyl-6-methylphenoxy)ethyl)amino)acetic acid] | -70% |  |  |  | 68% | <5% |  | < 5% | <5%

Continued, molecule first:

Structure (SMILES) | EC50 [1] | concentration at which significant (or KCl-comparable) rat trachea constriction is shown (rat trachea rings; rat trachea rings) | concentration at which significant (or full) rat trachea constriction is shown (rat trachea rings; rat trachea rings) | change in vivo at 10 mg/kg (circulating lymphocytes) | % trachea constriction at 3 μM (rat trachea rings) | % trachea constriction at 10 μM (rat trachea rings) | % trachea constriction at 30 μM (rat trachea rings) | activation at 1 µM (rat trachea rings) | % trachea constriction at 10 nM (rat trachea rings) | % trachea constriction at 30 nM (rat trachea rings) | activation at 0.1 µM (rat trachea rings) | % trachea constriction at 0.3 μM (rat trachea rings)
CCc1cc(-c2noc(-c3cc(OC)nc(C4CCCC4)c3)n2)cc(C)c1OC[C@@H](O)CNC(CO)CO [Example 4] | 6.6 nM |  |  | -65% | <5% | <5% | <5% | < 5% |  |  |  | 
COc1cc(-c2nc(-c3cc(Cl)c(OCCCC(=O)O)c(OC)c3)no2)cc(C2CCCC2)n1 [Example 35, 4-(2-Chloro-4-(5-(2-cyclopentyl-6-methoxypyridin-4-yl)-1,2,4-oxadiazol-3-yl)-6-methoxyphenoxy)butanoic acid] | 0.627 nM |  |  | -71% |  |  |  | 108% | <5% | <5% | 86% | 
CCc1cc(-c2noc(-c3cc(OC)nc(C4CCCC4)c3)n2)cc(C)c1OC[C@@H](O)CNCCO [Example 3] | 8.3 nM |  |  | -25% | <5% | <5% | <5% | < 5% |  |  |  | 
CCc1cc(-c2noc(-c3cc(OC)nc(C4CCCC4)c3)n2)cc(C)c1OCCCC(=O)O [Example 6, 4-(4-(5-(2-Cyclopentyl-6-methoxypyridin-4-yl)-1,2,4-oxadiazol-3-yl)-2-ethyl-6-methylphenoxy)butanoic acid] | 0.2 nM | 300 nM |  | -53% |  |  |  | 110% | <5% | <5% | < 5% | 91%
CCc1cc(-c2noc(-c3cc(OC)nc(C4CCCC4)c3)n2)cc(C)c1OCC(=O)O [Example 5, 2-(4-(5-(2-Cyclopentyl-6-methoxypyridin-4-yl)-1,2,4-oxadiazol-3-yl)-2-ethyl-6-methylphenoxy)acetic acid] | 1.6 nM |  |  | -35% |  |  |  | 124% | <5% | <5% | 66% | 84%
CCc1cc(-c2noc(-c3cc(OC)nc(C4CCCC4)c3)n2)cc(C)c1OCC(=O)NCCO [Example 13, 2-(4-(5-(2-Cyclopentyl-6-methoxypyridin-4-yl)-1,2,4-oxadiazol-3-yl)-2-ethyl-6-methylphenoxy)-N-(2-hydroxyethyl)acetamide] | 2.4 nM |  |  | -77% |  | <5% |  | < 5% |  |  |  | 
COc1cc(-c2nc(-c3cc(C)c(OCCNCCO)c(Cl)c3)no2)cc(C2CCCC2)n1 [Example 45, 2-((2-(2-Chloro-4-(5-(2-cyclopentyl-6-methoxypyridin-4-yl)-1,2,4-oxadiazol-3-yl)-6-methylphenoxy)ethyl)amino)ethanol] | 1.7 nM |  | 10000 nM | -72% | <5% | 52% |  | < 5% |  |  |  | 
COc1cc(-c2nc(-c3cc(C)c(OCC(=O)O)c(Cl)c3)no2)cc(C2CCCC2)n1 [Example 41, 2-(2-Chloro-4-(5-(2-cyclopentyl-6-methoxypyridin-4-yl)-1,2,4-oxadiazol-3-yl)-6-methylphenoxy)acetic acid] | 1.1 nM |  |  | -49% |  |  |  | 120% | <5% | 10% | 56% | 
CCc1cc(-c2nc(-c3cc(OC)nc(C4CCCC4)c3)no2)cc(C)c1OCCCC(=O)O [Example 54, 4-(4-(3-(2-Cyclopentyl-6-methoxypyridin-4-yl)-1,2,4-oxadiazol-5-yl)-2-ethyl-6-methylphenoxy)butanoic acid] | 0.1 nM |  |  | -72% |  |  |  | 76% |  | <5% | 5.6% | 55%
CCc1cc(-c2noc(-c3cc(OC)nc(C4CCCC4)c3)n2)cc(C)c1OCCNCCC(=O)O [Example 1, 3-((2-(4-(5-(2-Cyclopentyl-6-methoxypyridin-4-yl)-1,2,4-oxadiazol-3-yl)-2-ethyl-6-methylphenoxy)ethyl)amino)propanoic acid] | 0.04 nM |  |  | -69% |  |  |  | 96% |  |  | < 5% | 53%
COc1cc(-c2nc(-c3cc(Cl)c(OCCCC(=O)NCCO)c(OC)c3)no2)cc(C2CCCC2)n1 [Example 36, 4-(2-Chloro-4-(5-(2-cyclopentyl-6-methoxypyridin-4-yl)-1,2,4-oxadiazol-3-yl)-6-methoxyphenoxy)-N-(2-hydroxyethyl)butanamide] | 1.7 nM |  |  | -73% |  |  |  |  |  |  |  | 
